Results on 1 compound are retold here after EP2047849A1 (KTB Tumorforschungsgesellschaft mbH, priority 2007, dated 2009).

Common to all, as to experiment: 33PanQinase Activity Assay (in vitro protein kinase activity assay)
Type in all cases: biochemical
Conditions in all cases: recombinant purified kinase, 1 µM [γ-33P]-ATP

In one assay the target is T1, FLT3 wt (Homo sapiens, UniProt P36888).
T1 construct: made in house; host or cells: Sf9 insect cells (baculovirus)
T1 sequence (P36888 27-993): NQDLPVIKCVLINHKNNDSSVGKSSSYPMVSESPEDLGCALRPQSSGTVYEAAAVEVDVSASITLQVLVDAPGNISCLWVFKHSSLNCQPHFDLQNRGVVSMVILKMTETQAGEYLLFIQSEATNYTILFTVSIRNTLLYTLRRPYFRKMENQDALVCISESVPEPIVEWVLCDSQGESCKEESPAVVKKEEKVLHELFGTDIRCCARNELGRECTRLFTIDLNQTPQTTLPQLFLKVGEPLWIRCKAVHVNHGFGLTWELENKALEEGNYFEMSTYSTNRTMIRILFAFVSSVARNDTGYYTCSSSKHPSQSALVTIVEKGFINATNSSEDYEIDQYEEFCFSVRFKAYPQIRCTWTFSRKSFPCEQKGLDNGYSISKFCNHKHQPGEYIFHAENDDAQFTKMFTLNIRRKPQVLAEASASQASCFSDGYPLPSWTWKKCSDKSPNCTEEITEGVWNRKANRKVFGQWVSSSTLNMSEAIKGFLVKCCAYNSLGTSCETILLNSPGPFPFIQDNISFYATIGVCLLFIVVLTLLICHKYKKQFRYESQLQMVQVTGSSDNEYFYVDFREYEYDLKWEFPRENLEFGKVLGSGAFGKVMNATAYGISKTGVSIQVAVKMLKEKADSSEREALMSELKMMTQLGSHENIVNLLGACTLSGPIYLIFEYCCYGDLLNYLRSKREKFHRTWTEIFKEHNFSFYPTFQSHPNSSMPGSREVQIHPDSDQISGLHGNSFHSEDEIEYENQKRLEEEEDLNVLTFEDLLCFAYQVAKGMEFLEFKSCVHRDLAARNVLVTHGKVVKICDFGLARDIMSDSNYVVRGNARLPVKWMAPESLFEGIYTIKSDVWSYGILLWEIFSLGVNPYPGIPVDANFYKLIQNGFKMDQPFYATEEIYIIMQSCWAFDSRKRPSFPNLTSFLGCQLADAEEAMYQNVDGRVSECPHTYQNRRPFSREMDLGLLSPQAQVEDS
As for the experimental part: (§1) Inhibition of protein kinases by compounds was measured in proprietary protein kinase activity assay (^33PanQinase® Activity Assay) using recombinant purified protein kinases. All protein kinases were expressed in Sf9 insect cells as recombinant GST-fusion proteins or His-tagged proteins by means of the baculovirus expression system. All kinases were produced from human cDNAs. Kinases were purified by affinity chromatography using either GSH-agarose (Sigma) or Ni-NTH-agarose (Qiagen). The purity of the protein kinases was examined by SDS-PAGE/Coomassie staining. Activity was measured by determination of the incorporation of radio labelled phosphate into a substrate. The reaction cocktails for all enzymes contained 60 mM HEPES-NaOH, 10 mM Tris/HCl, pH 7.5, 20 mM NaCl, 3 mM MgCl2, 3 mM MnCl2, 3 µM Na-orthovanadate, 2 mM DTT, 4% glycerol, 1 µM [γ-^33P]-ATP (approx. 6 x 10^5 cpm per well), protein kinase , and substrate. Table 1: Protein kinases inhibited with high potency in vitro by compound PQ-012, PQ-013, PQ-014, PQ-016, PQ-041, PQ-042.

The target of the next assay is T2, PLK4 (Homo sapiens, UniProt O00444).
T2 construct: made in house; host or cells: Sf9 insect cells (baculovirus)
T2 sequence (O00444 1-970): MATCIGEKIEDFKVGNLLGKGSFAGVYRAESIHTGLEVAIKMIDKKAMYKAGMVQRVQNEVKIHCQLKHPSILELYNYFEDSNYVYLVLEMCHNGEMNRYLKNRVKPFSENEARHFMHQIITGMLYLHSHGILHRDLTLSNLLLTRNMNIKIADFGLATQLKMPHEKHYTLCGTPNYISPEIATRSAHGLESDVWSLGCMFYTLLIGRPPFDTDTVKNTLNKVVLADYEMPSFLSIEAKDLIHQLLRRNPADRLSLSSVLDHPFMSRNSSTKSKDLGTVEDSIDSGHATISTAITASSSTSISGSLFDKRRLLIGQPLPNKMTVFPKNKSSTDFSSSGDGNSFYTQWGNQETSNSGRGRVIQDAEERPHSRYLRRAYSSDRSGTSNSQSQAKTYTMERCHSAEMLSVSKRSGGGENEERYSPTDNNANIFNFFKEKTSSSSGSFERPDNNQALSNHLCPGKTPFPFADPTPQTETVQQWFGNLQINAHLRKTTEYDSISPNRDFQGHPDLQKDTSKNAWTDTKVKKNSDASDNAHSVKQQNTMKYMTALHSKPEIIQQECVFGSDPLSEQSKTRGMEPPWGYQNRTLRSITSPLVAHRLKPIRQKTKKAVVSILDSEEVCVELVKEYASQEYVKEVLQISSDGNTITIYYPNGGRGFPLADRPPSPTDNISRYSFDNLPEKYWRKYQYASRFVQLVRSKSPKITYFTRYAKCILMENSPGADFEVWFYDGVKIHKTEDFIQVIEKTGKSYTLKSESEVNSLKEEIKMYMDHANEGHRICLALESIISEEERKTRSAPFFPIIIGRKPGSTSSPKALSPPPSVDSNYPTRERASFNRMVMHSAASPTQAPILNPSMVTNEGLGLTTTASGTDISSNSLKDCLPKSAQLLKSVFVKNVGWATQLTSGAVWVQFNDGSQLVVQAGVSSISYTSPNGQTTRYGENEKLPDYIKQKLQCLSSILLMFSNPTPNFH
As for the experimental part: as §1

Another assay concerns the target T3, RSK2 (Homo sapiens, UniProt P51812).
T3 construct: made in house; host or cells: Sf9 insect cells (baculovirus)
As for the experimental part:
as §1

T3 sequence (P51812 whole entry): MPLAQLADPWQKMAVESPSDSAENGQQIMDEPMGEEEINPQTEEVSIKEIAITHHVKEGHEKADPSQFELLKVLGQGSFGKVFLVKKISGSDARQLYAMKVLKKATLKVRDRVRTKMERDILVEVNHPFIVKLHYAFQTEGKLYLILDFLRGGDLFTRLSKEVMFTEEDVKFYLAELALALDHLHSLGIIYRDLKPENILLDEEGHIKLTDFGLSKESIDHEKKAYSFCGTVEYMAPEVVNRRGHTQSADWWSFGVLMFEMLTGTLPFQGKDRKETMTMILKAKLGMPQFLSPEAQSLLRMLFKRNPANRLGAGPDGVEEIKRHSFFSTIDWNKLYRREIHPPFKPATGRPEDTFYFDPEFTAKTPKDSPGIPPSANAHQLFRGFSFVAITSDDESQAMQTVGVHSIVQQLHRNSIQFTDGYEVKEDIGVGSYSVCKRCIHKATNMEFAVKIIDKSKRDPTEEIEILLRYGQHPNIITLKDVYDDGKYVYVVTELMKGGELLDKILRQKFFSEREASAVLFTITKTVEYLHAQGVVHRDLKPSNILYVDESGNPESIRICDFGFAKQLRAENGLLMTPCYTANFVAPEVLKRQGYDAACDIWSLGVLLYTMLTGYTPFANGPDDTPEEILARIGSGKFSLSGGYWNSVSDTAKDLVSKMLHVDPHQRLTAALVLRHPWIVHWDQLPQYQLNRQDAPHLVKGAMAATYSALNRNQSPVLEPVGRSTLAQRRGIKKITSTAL

Consider `COc1ccc2[nH]c3c(c4c(c5c6cc(OC)ccc6n(C)c35)C(=O)NC4=O)c2c1` [PQ-013, 6,7,12,13-Tetrahydro-3,9-dimethoxy-12-methyl-5,7 dioxo-5H-indolo [2,3-a] pyrrolo [3,4-c]-carbazole], for which the IC50 (commonly the point on the concentration scale where inhibition reaches its midpoint) amounted to 0.0046 µM at FLT3 wt, 0.18 µM at PLK4 and 0.43 µM at RSK2.
